Data published in patent US8759301B2, “Gene fusion targeted therapy” (The Regents of The University of Michigan, priority 2010, dated 2014).
“Also recorded” adds a separate entry of the source. Where two headings read alike, the source gives them in different places.

Experiments:
AR protein = test: Immunoblot of AR protein in VCaP cells; type: cell-based
Excerpt: VCaP cells grown in DMEMglutamax (Invitrogen, Carlsbad, Calif.) supplemented with 10% FBS to 80% confluence. Cells were harvested with or without formaldehyde crosslinking, and nuclei were isolated subsequently. After washing with TBS twice, nuclei were lysed and sonicated in RIPA buffer containing protease inhibitors (Roche applied science, Indianapolis, Ind.). […] Mouse monoclonal anti-AR antibody (AR441) from Labvision (Thermo scientific, Fremont, Calif.) was used for Western experiment.

AR [1] = biological target: AR (Homo sapiens, UniProt P10275); conditions: VCaP, R1881 treated (10 nM, 16 hr, hormone deprived)
Method: For ERG ChIP, LNCaP, VCaP, RWPE+ERG, and RWPE+GUS cells grown in corresponding regular medium were used.
ChIP samples were prepared for sequencing using the Genomic DNA sample prep kit (Illumina) following manufacturers protocols. ChIP-Sequencing was performed using Illumina Genome Analyzer according to standard manufacturer's procedures. The raw sequencing image data were analyzed by the Illumina analysis pipeline, aligned to the unmasked human reference genome (NCBI v36, hg18) using the ELAND software (Illumina) to generate sequence reads of 25-32 bps.
It was first counted how many uniquely mapped reads are there in each sample and the ratio of the two counts was used as the normalizing factor to bring the total number of useable reads to the same level in both samples. Next each uniquely mapped read was extended directionally to form a 200 bp hypothetical DNA fragment (HDF) in each sample. 200 is assumed to be the average length of size-selected DNA pieces during sample preparation (175-225 bp).
Under the null hypothesis of no enrichment in the stimulated sample versus unstimulated samples, reads from both samples are assumed to land on the genome following the same Poisson distribution (after corrected for the read counts in the unstimulated sample). […] The probability of observing the read difference between two samples in each coverage region was calculated numerically. […]

AR mRNA = test: Quantitative PCR of AR transcript in VCaP cells; type: cell-based
Method: All PCR experiments were performed in triplicates.

AR [2] = biological target: AR (Homo sapiens, UniProt P10275, T878A); conditions: for number of AR binding sites: LNCaP R1881-treated
Chain of AR (Homo sapiens, UniProt P10275, T878A) (P10275 whole entry T878A): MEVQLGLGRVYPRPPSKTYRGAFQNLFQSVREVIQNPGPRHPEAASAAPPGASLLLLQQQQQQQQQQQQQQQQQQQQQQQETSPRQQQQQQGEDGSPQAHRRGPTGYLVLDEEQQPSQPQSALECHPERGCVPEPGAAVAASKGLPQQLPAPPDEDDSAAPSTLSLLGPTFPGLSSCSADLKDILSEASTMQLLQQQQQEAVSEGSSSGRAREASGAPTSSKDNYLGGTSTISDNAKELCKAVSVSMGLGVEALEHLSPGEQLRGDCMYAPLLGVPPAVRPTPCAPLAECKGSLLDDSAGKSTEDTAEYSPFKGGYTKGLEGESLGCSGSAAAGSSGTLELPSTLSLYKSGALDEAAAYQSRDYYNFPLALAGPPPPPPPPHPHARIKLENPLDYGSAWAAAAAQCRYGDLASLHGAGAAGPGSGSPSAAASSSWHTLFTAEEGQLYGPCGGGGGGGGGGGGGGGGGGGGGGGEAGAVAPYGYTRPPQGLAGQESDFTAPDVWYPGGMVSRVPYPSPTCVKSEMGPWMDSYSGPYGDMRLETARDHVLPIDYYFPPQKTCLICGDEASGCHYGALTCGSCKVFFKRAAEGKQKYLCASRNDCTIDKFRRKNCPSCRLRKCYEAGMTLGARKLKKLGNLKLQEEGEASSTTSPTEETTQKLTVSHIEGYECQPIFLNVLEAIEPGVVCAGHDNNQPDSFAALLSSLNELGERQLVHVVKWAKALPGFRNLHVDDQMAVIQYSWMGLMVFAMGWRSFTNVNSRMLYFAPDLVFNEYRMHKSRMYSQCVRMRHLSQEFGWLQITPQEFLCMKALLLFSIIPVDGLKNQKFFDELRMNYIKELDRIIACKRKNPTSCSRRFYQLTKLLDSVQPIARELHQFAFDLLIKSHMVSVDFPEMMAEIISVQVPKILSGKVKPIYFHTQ

Chain of AR (Homo sapiens, UniProt P10275) (P10275 whole entry): as the sequence (P10275 whole entry T878A) above, with A878T counted along it

Structure (SMILES): C[C@]1(O)CC[C@H]2[C@@H]3CCC4=CC(=O)CCC4=C3C=C[C@@]21C [R1881, methyltrienolone]
- AR protein expression (AR protein): inhibits
- Enriched Peaks, AR ChIP-Seq (AR [1]): 21376
- AR mRNA expression (AR mRNA; VCaP cells): inhibits; also recorded: repression
- repression of AR transcript (AR mRNA; hormone-deprived VCaP, 24 h after treatment, versus vehicle): over 10 folds
- number of AR binding sites (AR [2]; distance to TSS 7 kb): 145
- number of AR binding sites (AR [2]; distance to TSS 8 kb): 148
- number of AR binding sites (AR [2]; distance to TSS 9 kb): 139
- number of AR binding sites (AR [2]; distance to TSS 10 kb): 117
- number of AR binding sites (AR [2]; distance to TSS 11 kb): 120
- number of AR binding sites (AR [2]; distance to TSS 12 kb): 123
- number of AR binding sites (AR [2]; distance to TSS 13 kb): 134
- number of AR binding sites (AR [2]; distance to TSS 14 kb): 126
- number of AR binding sites (AR [2]; distance to TSS 15 kb): 137
- number of AR binding sites (AR [2]; distance to TSS 16 kb): 114
- number of AR binding sites (AR [2]; distance to TSS 17 kb): 109
- number of AR binding sites (AR [2]; distance to TSS 18 kb): 107
- number of AR binding sites (AR [2]; distance to TSS 19 kb): 109
- number of AR binding sites (AR [2]; distance to TSS 20 kb): 97
- number of AR binding sites (AR [2]; distance to TSS 21 kb): 97
- number of AR binding sites (AR [2]; distance to TSS 22 kb): 98
- number of AR binding sites (AR [2]; distance to TSS 23 kb): 100
- number of AR binding sites (AR [2]; distance to TSS 24 kb): 99
- number of AR binding sites (AR [2]; distance to TSS 25 kb): 105
- number of AR binding sites (AR [2]; distance to TSS 26 kb): 105
- number of AR binding sites (AR [2]; distance to TSS 27 kb): 86
- number of AR binding sites (AR [2]; distance to TSS 28 kb): 90
- number of AR binding sites (AR [2]; distance to TSS 29 kb): 76
- number of AR binding sites (AR [2]; distance to TSS 30 kb): 78
- number of AR binding sites (AR [2]; distance to TSS 31 kb): 101
- number of AR binding sites (AR [2]; distance to TSS 32 kb): 86
- number of AR binding sites (AR [2]; distance to TSS 33 kb): 94
- number of AR binding sites (AR [2]; distance to TSS 34 kb): 79
- number of AR binding sites (AR [2]; distance to TSS 35 kb): 68
- number of AR binding sites (AR [2]; distance to TSS 36 kb): 79
- number of AR binding sites (AR [2]; distance to TSS 37 kb): 88
- number of AR binding sites (AR [2]; distance to TSS 38 kb): 72
- number of AR binding sites (AR [2]; distance to TSS 39 kb): 57
- number of AR binding sites (AR [2]; distance to TSS 40 kb): 65
- number of AR binding sites (AR [2]; distance to TSS 41 kb): 76
- number of AR binding sites (AR [2]; distance to TSS 42 kb): 65
- number of AR binding sites (AR [2]; distance to TSS 43 kb): 73
- number of AR binding sites (AR [2]; distance to TSS 44 kb): 58
- number of AR binding sites (AR [2]; distance to TSS 45 kb): 69
- number of AR binding sites (AR [2]; distance to TSS 46 kb): 56
- number of AR binding sites (AR [2]; distance to TSS 47 kb): 53
- number of AR binding sites (AR [2]; distance to TSS 48 kb): 55
- number of AR binding sites (AR [2]; distance to TSS 49 kb): 61
- number of AR binding sites (AR [2]; distance to TSS 50 kb): 77
- number of AR binding sites (AR [2]; distance to TSS 51 kb): 50
- number of AR binding sites (AR [2]; distance to TSS 52 kb): 54
- number of AR binding sites (AR [2]; distance to TSS 53 kb): 61
- number of AR binding sites (AR [2]; distance to TSS 54 kb): 56
- number of AR binding sites (AR [2]; distance to TSS 55 kb): 41
- number of AR binding sites (AR [2]; distance to TSS 56 kb): 55
- number of AR binding sites (AR [2]; distance to TSS 57 kb): 59
- number of AR binding sites (AR [2]; distance to TSS 58 kb): 60
- number of AR binding sites (AR [2]; distance to TSS 59 kb): 58
- number of AR binding sites (AR [2]; distance to TSS 60 kb): 43
- number of AR binding sites (AR [2]; distance to TSS 61 kb): 36
- number of AR binding sites (AR [2]; distance to TSS 62 kb): 49
- number of AR binding sites (AR [2]; distance to TSS 63 kb): 40
- number of AR binding sites (AR [2]; distance to TSS 64 kb): 52
- number of AR binding sites (AR [2]; distance to TSS 65 kb): 50
- number of AR binding sites (AR [2]; distance to TSS 66 kb): 39
- number of AR binding sites (AR [2]; distance to TSS 67 kb): 37
- number of AR binding sites (AR [2]; distance to TSS 68 kb): 47
- number of AR binding sites (AR [2]; distance to TSS 69 kb): 47
- number of AR binding sites (AR [2]; distance to TSS 70 kb): 45
- number of AR binding sites (AR [2]; distance to TSS 71 kb): 43
- number of AR binding sites (AR [2]; distance to TSS 72 kb): 43
- number of AR binding sites (AR [2]; distance to TSS 73 kb): 57
- number of AR binding sites (AR [2]; distance to TSS 74 kb): 37
- number of AR binding sites (AR [2]; distance to TSS 75 kb): 34
- number of AR binding sites (AR [2]; distance to TSS 76 kb): 39
- number of AR binding sites (AR [2]; distance to TSS 77 kb): 48
- number of AR binding sites (AR [2]; distance to TSS 78 kb): 31
- number of AR binding sites (AR [2]; distance to TSS 79 kb): 37
- number of AR binding sites (AR [2]; distance to TSS 80 kb): 36
- number of AR binding sites (AR [2]; distance to TSS 81 kb): 35
- number of AR binding sites (AR [2]; distance to TSS 82 kb): 49
- number of AR binding sites (AR [2]; distance to TSS 83 kb): 39
- number of AR binding sites (AR [2]; distance to TSS 84 kb): 32
- number of AR binding sites (AR [2]; distance to TSS 85 kb): 39
- number of AR binding sites (AR [2]; distance to TSS 86 kb): 40
- number of AR binding sites (AR [2]; distance to TSS 87 kb): 31
- number of AR binding sites (AR [2]; distance to TSS 88 kb): 34
- number of AR binding sites (AR [2]; distance to TSS 89 kb): 33
- number of AR binding sites (AR [2]; distance to TSS 90 kb): 33
- number of AR binding sites (AR [2]; distance to TSS 91 kb): 41
- number of AR binding sites (AR [2]; distance to TSS 92 kb): 28
- number of AR binding sites (AR [2]; distance to TSS 93 kb): 36
- number of AR binding sites (AR [2]; distance to TSS 94 kb): 27
- number of AR binding sites (AR [2]; distance to TSS 95 kb): 28
- number of AR binding sites (AR [2]; distance to TSS 96 kb): 35
- number of AR binding sites (AR [2]; distance to TSS 97 kb): 27
- number of AR binding sites (AR [2]; distance to TSS 98 kb): 27
- number of AR binding sites (AR [2]; distance to TSS 99 kb): 34
- number of AR binding sites (AR [2]; distance to TSS 100 kb): 19
- number of AR binding sites (AR [2]; distance to TSS 101 kb): 24
- number of AR binding sites (AR [2]; distance to TSS 102 kb): 23
- number of AR binding sites (AR [2]; distance to TSS 103 kb): 28
- number of AR binding sites (AR [2]; distance to TSS 104 kb): 30
- number of AR binding sites (AR [2]; distance to TSS 105 kb): 20
- number of AR binding sites (AR [2]; distance to TSS 106 kb): 31
- Enriched Peaks, AR ChIP-Seq (AR [2]; LNCaP, R1881 treated (10 nM, 16 hr, hormone deprived)): 44536
